Experiments:
[1] = test system: normal human T lymphocytes; conditions: in vitro; cited from earlier work
T cells = test: T cell activation by anti-CD3/CD28 DynaBeads, CD25/CD69/4-1BB expression by flow cytometry
From the text: The inventors pre-treated T cells with dasatinib or DMSO for 5 hr, then activated T cells with anti-CD3/CD28 DynaBeads for 24 hr, and then detected the expression of activation molecules CD25, CD69 and 4-1BB by flow cytometry.
In order to verify the tolerance of the LCK-T316I mutation to the function of dasatinib, the inventors carried out experimental verification on the T cells with LCK edited with different sgRNA lengths prepared in Example 2.
The inventors isolated CD3-positive T cells from human peripheral blood and divided them into eleven portions for processing, with 1e5 cells in each portion. One of these portions was not treated with dasatinib, anti-CD3/CD28 DynaBeads were not added to activate TCR, and this portion was as the initial control group; the other 10 portions of cells were pretreated with different concentrations of dasatinib for 4 hr, ten concentrations ranging from 0 nM to 50 nM were set, and then anti-CD3/CD28 DynaBeads were added to activate TCR signals overnight. On the second day, the expression of CD25, CD69 and 4-1BB activation signals was detected, and the activation of TCR signals was detected. Two replicates were set for each group of experiments.
The inventors divided each of the three groups of edited cells into 6 sub-groups and cultured them in a flat-bottomed 96-well plate. Each sub-group contained two technical replicates, and each well contained 0.15×10^6 cells. […] Subsequently, the cells were cultured for 18 hr. The activated T cell surface marker molecule 4-1BB was detected by using the APC-labeled murine IgG monoclonal antibody, and the activated T cell surface marker molecule CD25 was detected by using the PE-labeled murine IgG monoclonal antibody, and the activated T cell surface marker CD69 was detected by FITC-labeled murine IgG monoclonal antibody.
The inventors conducted research using two groups of T cells (CBE3 control group and Km edited group) in the above experiments. The experimental procedure is basically the same as the above-mentioned experiment (FIG. 32B). The two groups of edited cells were each divided into 7 sub-groups and cultured them in a flat-bottomed 96-well plate. Each sub-group contained two technical replicates, and each well contained 0.15×10^6 cells. […] Subsequently, the cells were cultured for 18 hr. The activated T cell surface marker molecule 4-1BB was detected by using the APC-labeled murine IgG monoclonal antibody, and the activated T cell surface marker molecule CD25 was detected by using the PE-labeled murine IgG monoclonal antibody, and the activated T cell surface marker CD69 was detected by FITC-labeled murine IgG monoclonal antibody.

anti-BCMA-CAR-T cells = test: CD107a translocation of anti-BCMA-CAR-T cells co-incubated with target cells; format: cell-based, human; conditions: LCK-sgRNA16 editing group (42% T316I), 100 nM dasatinib 12 hr
[2] = T cells, 20 nM dasatinib 4 hr, beads overnight
[3] = T cells, 25 nM dasatinib 4 hr, beads overnight
[4] = T cells, dasatinib increased to 50 nM, beads overnight

Cc1nc(Nc2ncc(C(=O)Nc3c(C)cccc3Cl)s2)cc(N2CCN(CCO)CC2)n1 [dasatinib]
viability of T cells [1]: will not affect the viability of T cells | concentration that effectively inhibits T cell activation in vitro (minimum) (T cells; T cells, 0-50 nM gradient): 25 nM | percentage of CD25 and 4-1BB double-positive cells (T cells; [2]): 2.09% | percentage of CD25 and CD69 double-positive cells (T cells; [2]): 8.75% | percentage of CD25 and CD69 double-positive cells (T cells; [3]): 1.06% | percentage of double-positive cells (FIG. 20B, CD25 and 4-1BB as indicators) (T cells; [3]): 0.26% | concentration sufficient to inhibit activation of TCR signaling (T cells; T cells, 5 hr pretreatment, beads 24 hr): 100 nM | percentage of CD25 and CD69 double-positive cells (T cells; [4]): below 1% | percentage of double-positive cells (FIG. 20B, CD25 and 4-1BB as indicators) (T cells; [4]): below 1% | reduction of expression of activation molecules versus no dasatinib (T cells; sgRNA16 group (about 50% edited), 100 nM dasatinib, anti-CD3/CD28 beads): 20%-50% | positive CD107a translocation in CD8 and CAR double-positive cells (anti-BCMA-CAR-T cells; RPMI-8226): 44.7% | positive CD107a translocation in CD8 and CAR double-positive cells (anti-BCMA-CAR-T cells; U266B1): 39.6%
